Measured values as given in paper PMC3091966 (2011).

Legend:
[1] = target: T1, human αβγ ENaC (α subunit) (Homo sapiens, UniProt P37088+P51168+P51170); assay: two-electrode voltage clamp in Xenopus oocytes, block of current; format: cell-based
T1 sequence (P37088 1-669): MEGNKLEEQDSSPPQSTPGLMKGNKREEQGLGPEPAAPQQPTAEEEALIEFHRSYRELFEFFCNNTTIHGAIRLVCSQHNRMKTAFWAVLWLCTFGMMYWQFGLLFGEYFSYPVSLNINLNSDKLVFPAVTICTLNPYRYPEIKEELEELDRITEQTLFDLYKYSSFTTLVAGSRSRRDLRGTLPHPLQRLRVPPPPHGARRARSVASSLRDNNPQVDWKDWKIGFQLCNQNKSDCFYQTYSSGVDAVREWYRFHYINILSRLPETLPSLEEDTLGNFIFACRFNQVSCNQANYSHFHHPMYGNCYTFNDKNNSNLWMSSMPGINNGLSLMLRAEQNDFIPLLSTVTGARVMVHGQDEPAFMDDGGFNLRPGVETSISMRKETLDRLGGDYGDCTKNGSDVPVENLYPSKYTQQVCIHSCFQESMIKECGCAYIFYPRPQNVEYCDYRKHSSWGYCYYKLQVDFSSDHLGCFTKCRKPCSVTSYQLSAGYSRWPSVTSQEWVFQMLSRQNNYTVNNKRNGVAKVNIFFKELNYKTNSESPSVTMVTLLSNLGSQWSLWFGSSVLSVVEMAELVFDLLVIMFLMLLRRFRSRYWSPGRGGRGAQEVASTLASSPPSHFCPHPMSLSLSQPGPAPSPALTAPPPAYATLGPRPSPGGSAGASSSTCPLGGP
T1 sequence (P51168 1-640): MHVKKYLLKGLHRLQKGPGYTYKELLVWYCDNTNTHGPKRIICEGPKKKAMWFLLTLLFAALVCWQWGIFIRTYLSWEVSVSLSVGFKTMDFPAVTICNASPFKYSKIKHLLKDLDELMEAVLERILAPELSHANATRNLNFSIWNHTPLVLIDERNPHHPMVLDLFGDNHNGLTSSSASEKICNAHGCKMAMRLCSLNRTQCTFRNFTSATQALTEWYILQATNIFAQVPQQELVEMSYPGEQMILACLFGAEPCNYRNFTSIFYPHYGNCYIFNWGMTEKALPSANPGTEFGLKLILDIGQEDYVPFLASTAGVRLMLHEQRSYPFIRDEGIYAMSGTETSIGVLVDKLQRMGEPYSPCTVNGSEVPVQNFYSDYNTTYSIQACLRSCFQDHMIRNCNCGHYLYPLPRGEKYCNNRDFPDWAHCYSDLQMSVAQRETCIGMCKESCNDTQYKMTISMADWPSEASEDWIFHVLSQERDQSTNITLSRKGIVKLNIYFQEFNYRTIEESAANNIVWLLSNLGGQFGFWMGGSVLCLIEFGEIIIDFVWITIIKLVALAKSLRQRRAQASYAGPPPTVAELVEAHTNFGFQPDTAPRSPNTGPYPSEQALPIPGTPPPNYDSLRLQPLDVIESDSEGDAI
T1 sequence (P51170 1-649): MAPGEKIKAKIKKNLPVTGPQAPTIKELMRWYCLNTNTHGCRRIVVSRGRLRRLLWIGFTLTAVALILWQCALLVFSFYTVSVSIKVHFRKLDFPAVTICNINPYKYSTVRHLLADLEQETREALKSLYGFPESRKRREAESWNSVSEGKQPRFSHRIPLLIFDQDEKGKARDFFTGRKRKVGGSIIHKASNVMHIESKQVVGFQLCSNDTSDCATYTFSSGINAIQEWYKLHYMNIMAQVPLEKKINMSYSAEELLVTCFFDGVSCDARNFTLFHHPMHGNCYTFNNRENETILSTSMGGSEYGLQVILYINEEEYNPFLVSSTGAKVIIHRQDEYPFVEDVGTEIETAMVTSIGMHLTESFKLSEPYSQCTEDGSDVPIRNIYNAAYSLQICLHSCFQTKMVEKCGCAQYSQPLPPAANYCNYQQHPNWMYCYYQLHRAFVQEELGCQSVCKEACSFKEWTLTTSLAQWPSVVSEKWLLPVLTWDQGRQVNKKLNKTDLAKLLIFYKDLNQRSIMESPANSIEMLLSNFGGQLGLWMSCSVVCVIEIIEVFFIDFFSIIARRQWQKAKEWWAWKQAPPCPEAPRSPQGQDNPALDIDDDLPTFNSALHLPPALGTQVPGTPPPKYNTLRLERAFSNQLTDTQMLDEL

[2] = target: T1, human αβγ ENaC (α subunit); assay: two-electrode voltage clamp in Xenopus oocytes, external perfusion; format: cell-based

EC50 [2] [µM]	SMILES	two-electrode voltage clamp in Xenopus oocytes, block of current [1]
–	N=C(N)NC(=O)c1nc(Cl)c(N)nc1N [amiloride]	Both basal and elevated currents were sensitive to amiloride.
49 ± 14	Nc1ncnc2c1nc(Sc1ccc(Cl)cc1)n2[C@@H]1O[C@@H]2COP(=O)(O)O[C@H]2[C@H]1O [cpt-cAMP]	–
